# Measured values taken from patent publication USRE47350E1, “Pharmaceutical formulations containing dopamine receptor ligands” (Richter Gedeon Nyrt., priority 2008, dated 2019).
# Like-named read-outs stand apart in the source and are kept apart here.
# Key:
# [1] = Linear calculated pharmacokinetic parameters (Table 33); assay type: in vivo; conditions: human, plasma, po; for AUC(0-t): read-out: Mean AUC0-168
# Protocol: Linear calculated pharmacokinetic parameters (based on the 2.0 mg data (Table 35, 80% of AUClast, Treatment I) for dosages greater than 2.0 mg and on the 0.5 mg data for dosages lower than 0.5 mg (Table 33) are shown in Table 33.
# [2] = Multiple dose study in healthy male volunteers (Example 6); assay type: in vivo; conditions: human, plasma, fasted; for AUC: read-out: AUC0-τ
# Protocol: Thirty-two healthy male subjects (mean age=24.9 years) were randomized into 4 groups (I-IV). In each group, 2 subjects received placebo and 6 subjects received one of the following treatments: • (I) 7 doses of 0.5 mg cariprazine administered every other day; • (II) 14 doses of 0.5 mg cariprazine every day; • (III) 2 doses of 0.5 mg cariprazine followed by 12 doses of 1.0 mg cariprazine every day; and • (IV) 21 doses of 1.0 mg cariprazine every day. Plasma samples were analyzed for cariprazine by a validated LC-MS/MS assay (Internal Standards: deuterated compounds; Sample preparation: Liquid-liquid extraction after alkalization; Sample Volume: 1 mL; Calibration Range: 0.05-25 ng/mL; Inonization: +ESI with MRM mode). The design of the study is shown below in Table 35. [table]
# [3] = Single-center, randomized, open-label, parallel-group single-dose study, 2-mg tablet fasted/fed (Example 5); assay type: in vivo; conditions: both sexes, human, plasma, po, mean, single oral 2-mg tablet; for half-life: read-out: T½ (converted)
# Protocol: The objectives of this study were (i) to assess the effect of food on the oral bioavailability of cariprazine (2-mg tablet), (ii) to assess the effect of gender on the oral bioavailability of cariprazine after a single oral dose (2-mg tablet), and (iii) to evaluate the pharmacokinetics of cariprazine and its metabolites after an oral dose (2-mg tablet). This clinical study was conducted as a single-center, randomized, open-label, parallel-group single-dose study. A total of 42 healthy male and female patients aged 18-45 years were selected, with an approximate male-to-female ratio of 1:1. Dosing occurred in two treatment sessions (Treatment 1 and Treatment 2) separated by 5 to 7 days. The subjects were randomized with ˜1:1 male-female ratio to receive one of the following two treatments: • Treatment 1: • Single oral dose of one 2-mg cariprazine tablet under fasted conditions (12 female, 11 male subjects) • Treatment 2: • Single oral dose of one 2-mg cariprazine tablet under fed conditions (10 female, 9 male subjects) Subjects were given the study drug with 240 mL of water in the clinic under fed/fasted conditions at 0800 hours on Day 1. Subjects taking Treatment 1 underwent a 10-hour overnight fast before dosing on Day 1 and continued fasting for an additional 4 hours postdose. Subjects taking Treatment 2 underwent a 10-hour overnight fast before eating a US Food and Drug Administration standardized high-fat breakfast at 0730 hours on Dosing Day 1. This study was 30 days in duration (Day −1 through the last pharmacokinetic (PK) blood sample collection on Day 29). Blood sampling was performed at the following times to determine cariprazine plasma concentrations: 0.0 (predose), 0.5, 1, 2, 3, 4, 6, 8, 12, 24, 36, 48, 72, 96, 168, 336, 504 and 672 hours postdose.
# [4] = Double-blind placebo controlled single dose pharmacokinetic study of cariprazine capsules in healthy male volunteers (Example 4); assay type: in vivo, human; conditions: for Cmax / Tmax / half-life / AUC(0-t): male, human, plasma, oral; for AUC(0-t): read-out: AUC0-168
# Protocol: The pharmacokinetic parameters described herein include area under the plasma concentration-time curve (AUC0-t and AUC0-∞), maximum plasma concentration (Cmax), time of maximum plasma concentration (Tmax) and terminal elimination half-life (T1/2). The time of maximum concentration, Tmax, is determined as the time corresponding to Cmax. Area under the plasma concentration-time curve up to the time corresponding to the last measurable concentration (AUC0-t) is calculated by numerical integration using the linear trapezoidal rule as follows: The terminal half-life (T1/2) is calculated using the following equation: The area under the plasma concentration-time curve from time zero to infinity is calculated according to the following equation: A double-blind, placebo controlled single dose study of the pharmacokinetic parameters of cariprazine (capsules) in healthy male volunteers was conducted. [table] The composition of the capsules is given below in Table 31. The mean pharmacokinetic parameters observed after administration of a single dose of 0.5 to 2.5 mg cariprazine are shown below in Table 32.
# [5] = Hydrolytic degradation when formulated with commonly used excipients (general statements); assay type: physicochemical
# From the text: The formation of a degradation product such as De-BOC in a pharmaceutical formulation is detrimental to activity. Moreover, if the amount of degradation product exceeds FDA guidelines, additional safety and toxicology testing must be undertaken. Thus, it is important that stable and bioavailable formulations containing, for example, cariprazine and its salts, be developed, in which the amount of degradation product present falls within accepted FDA guidelines.
# The preparation of stable and bioavailable dosage forms containing compounds of formula (I) is; however, not straightforward.
# [6] = 0.5 mg, Group I: 7 doses of 0.5 mg every other day
# [7] = 0.5 mg, Group II: 14 doses of 0.5 mg every day
# [8] = 1 mg, Group IV: 21 doses of 1.0 mg every day
# [9] = Group III: 2 doses of 0.5 mg followed by 12 doses of 1.0 mg every day
# [10] = mean, single dose 0.5 mg capsules, fasted, Group III Period 1
# [11] = mean, single dose 1 mg capsules, fasted, Group I Period 1
# [12] = mean, single dose 1.5 mg capsules, fasted, Group II Period 2
# [13] = mean, single dose 2 mg capsules, fasted, Group I Period 2
# [14] = mean, single dose 2.5 mg capsules, fasted, Group II Period 1
smiles,measurement,setting,value
"CN(C)C(=O)N[C@H]1CC[C@H](CCN2CCN(c3cccc(Cl)c3Cl)CC2)CC1 [cariprazine, trans-1{4-[2-[4-(2,3-dichlorophenyl)-piperazin-1-yl]-ethyl]-cyclohexyl}-3,3-dimethyl-urea]",Cmax,[1]; dose 0.1 mg,0.03 ng/mL
same,AUC(0-t),[1]; dose 0.1 mg,2.82 ng·h/mL
same,Cmax,[1]; dose 0.25 mg,0.09 ng/mL
same,AUC(0-t),[1]; dose 0.25 mg,1.05 ng·h/mL
same,Cmax,[1]; dose 3 mg,3.8 ng/mL
same,AUC(0-t),[1]; dose 3 mg,96.8 ng·h/mL
same,Cmax,[1]; dose 4.5 mg,5.7 ng/mL
same,AUC(0-t),[1]; dose 4.5 mg,145 ng·h/mL
same,Cmax,[1]; dose 5 mg,6.33 ng/mL
same,AUC(0-t),[1]; dose 5 mg,161 ng·h/mL
same,Cmax,[1]; dose 6 mg,7.6 ng/mL
same,AUC(0-t),[1]; dose 6 mg,194 ng·h/mL
same,Cmax,[1]; dose 7.5 mg,9.5 ng/mL
same,AUC(0-t),[1]; dose 7.5 mg,242 ng·h/mL
same,Cmax,[1]; dose 9 mg,11.4 ng/mL
same,AUC(0-t),[1]; dose 9 mg,290 ng·h/mL
same,Cmax,[1]; dose 12.5 mg,15.8 ng/mL
same,AUC(0-t),[1]; dose 12.5 mg,404 ng·h/mL
same,Cmax,[1]; dose 15 mg,19 ng/mL
same,AUC(0-t),[1]; dose 15 mg,484 ng·h/mL
same,Cmax,[2]; [6],1.03 ng/mL
same,AUC,[2]; [6],32.9 ng·h/mL
same,Tmax,"[2]; 0.5 mg, Group I: 7 doses of 0.5 mg every other day, read-out: tmax",4 h
same,Cmax,[2]; [7],1.42 ng/mL
same,AUC,[2]; [7],25 ng·h/mL
same,Tmax,"[2]; 0.5 mg, Group II: 14 doses of 0.5 mg every day, read-out: tmax",3.5 h
same,Cmax,[2]; [8],3.9 ng/mL
same,AUC,[2]; [8],56.8 ng·h/mL
same,Tmax,"[2]; 1 mg, Group IV: 21 doses of 1.0 mg every day, read-out: tmax (range only printed)",2 to 3 h
same,Cmax,[2]; [9],3.19 ng/mL
same,AUC,[2]; [9],53.6 ng·h/mL
same,Tmax,"[2]; Group III: 2 doses of 0.5 mg followed by 12 doses of 1.0 mg every day, read-out: tmax",4 h
same,AUC(0-inf),[3]; Fed,97 ng·h/mL
same,AUC(0-t),[3]; Fed,89.2 ng·h/mL
same,Cmax,[3]; Fed,1.72 ng/mL
same,Tmax,[3]; Fed,9.21 h
same,half-life,[3]; Fed,8.26 days
same,AUC(0-inf),[3]; Treatment 1 (Fasted),89.9 ng·h/mL
same,AUC(0-t),[3]; Treatment 1 (Fasted),80.7 ng·h/mL
same,Cmax,[3]; Treatment 1 (Fasted),1.99 ng/mL
same,Tmax,[3]; Treatment 1 (Fasted),4.91 h
same,half-life,[3]; Treatment 1 (Fasted),8.44 days
same,Cmax,[4]; [10],0.14 ng/mL
same,Tmax,[4]; [10],6 h
same,half-life,[4]; [10],9.03 days
same,AUC(0-t),[4]; [10],14.1 ng·h/mL
same,Cmax,[4]; [11],0.76 ng/mL
same,Tmax,[4]; [11],3 h
same,half-life,[4]; [11],7.72 days
same,AUC(0-t),[4]; [11],35.4 ng·h/mL
same,Cmax,[4]; [12],1.19 ng/mL
same,Tmax,[4]; [12],3 h
same,half-life,[4]; [12],5.41 days
same,AUC(0-t),[4]; [12],46.7 ng·h/mL
same,Cmax,[4]; [13],2.53 ng/mL
same,Tmax,[4]; [13],3 h
same,half-life,[4]; [13],5.42 days
same,AUC(0-t),[4]; [13],95.3 ng·h/mL
same,Cmax,[4]; [14],2.5 ng/mL
same,Tmax,[4]; [14],4 h
same,half-life,[4]; [14],5.77 days
same,AUC(0-t),[4]; [14],97.5 ng·h/mL
same,Tmax,[4]; single dose 0.5 to 2.5 mg,3 to 6 h
"CN(C)C(=O)N[C@H]1CC[C@H](CCN2CCN(c3cccc(Cl)c3Cl)CC2)CC1.Cl [cariprazine hydrochloride, trans-1{4-[2-[4-(2,3-dichlorophenyl)-piperazin-1-yl]-ethyl]-cyclohexyl}-3,3-dimethyl-urea hydrochloride]",stability toward hydrolytic degradation product formation,[5],undergoes hydrolytic cleavage of the amide bond
same,dose proportionality of exposure relative to mean AUC,[4]; single-dose range of 0.5 mg to 2.5 mg,approximate dose proportionality
